Structures are written as SMILES. ≈ marks a conversion by molar mass, not a printed value.

These results are taken from patent publication US5478841A, “Fluorinated quinolones, process for their preparation and pharmaceutical preparations containing same” (Bouchara S.A., priority 1992, dated 1995).

In one data set the test system is S. aureus ATCC 25923. In words: MIC/MBC, microdilution in Mueller-Hinton broth, S. aureus ATCC 25923. The conditions noted are these: Staphylococcus aureus; for MIC: ATCC25923, 18 h at 37° C., about 10^6 bacteria/ml, read-out: MINIMAL INHIBITORY CONCENTRATION (MIC); for MBC: ATCC25923, read-out: MINIMAL BACTERICIDAL CONCENTRATION (MBC). It is filed as cell-based. As to the method:
(§1) The products were tested vis-a-vis 7 reference strains
Straphylococcus aureus ATCC 25923
(§2) The preparation of these mother solutions produced, varied according to the molecules as a function of solubility criteria.
(§3) The inoculation is carried out by adding to each cupule 10 μl of a dilution in physiological water of an 18 hour broth of heart/brain broth such that each cupule contains about 10^6 bacteria/ml.
(§4) The minimal inhibitory concentration is read as the first concentration of antibiotic giving no culture which is macroscopically visible after incubation for 18 hours at 37° C.

In a further data set the test system is P. aeruginosa ATCC 22853. In words: MIC/MBC, microdilution in Mueller-Hinton broth, P. aeruginosa. In kind it is cell-based. The conditions noted are these: Pseudomonas aeruginosa; for MIC: ATCC22853, 18 h, read-out: MINIMAL INHIBITORY CONCENTRATION (MIC); for MBC: ATCC22853, read-out: MINIMAL BACTERICIDAL CONCENTRATION (MBC). On the procedure:
as §1
Pseudomonas aeruginosa ATCC 22853
as §2, §3, §4
In general terms: Broth dilution looks for growth in wells or tubes with falling amounts of substance.

A further data set concerns S. faecalis ATCC 25922. As to the kind of experiment: MIC/MBC, microdilution in Mueller-Hinton broth, S. faecalis. In kind it is cell-based, Streptococcus faecalis. To be noted: Enterococcus faecalis, ATCC25922, 18 h, read-out: MINIMAL INHIBITORY CONCENTRATION (MIC). As to the method:
(§5) The products were tested vis-a-vis 7 reference strains […]
as §2, §3, §4

A further data set concerns S. faecalis. The description is as above. It is filed as cell-based, Streptococcus faecalis. The conditions noted are these: Enterococcus faecalis, ATCC25922, read-out: MINIMAL BACTERICIDAL CONCENTRATION (MBC). As to the method:
as §5, §2, §3, §4

The test system of the next data set is E. coli ATCC 25922. In words: MIC/MBC, microdilution in Mueller-Hinton broth, E. coli. In kind it is cell-based. The conditions noted are these: Escherichia coli; for MIC: ATCC25922, 18 h at 37° C., about 10^6 bacteria/ml, read-out: MINIMAL INHIBITORY CONCENTRATION (MIC); for MBC: ATCC25922, read-out: MINIMAL BACTERICIDAL CONCENTRATION (MBC). On the procedure:
as §1
Escherichia coli ATCC 25922
as §2, §3, §4

For data set [1], the system named is Acinetobacter Baumanii ATCC 17904. As to the kind of experiment: MIC/MBC, microdilution in Mueller-Hinton broth, Acinetobacter. It is filed as cell-based. The conditions noted are these: Acinetobacter baumannii. As to the method: as §1
Acinetobacter calcoaceticus variety anitratum ATCC 17903
as §2, §3, §4

A further data set has as its system S. aureus CB-951. In words: MIC/MBC, microdilution in Mueller-Hinton broth, S. aureus CB-951. It is filed as cell-based. To be noted: Staphylococcus aureus, CB951, S. aureus CB-951, methicillino resistant, pefloxacino resistant. As to the method: as §1
Staphylococcus aureus CB 951
as §2, §3, §4

The next data set is described as follows: solubility in water. In kind it is physicochemical. To be noted: hydrochloride, pale yellow crystals.

As to `CC(C)n1cc(C(=O)O)c(=O)c2cc(F)c(N3CCC(CN)CC3)c(F)c21` [Compound 7, 6,8-difluoro-1-isopropyl-7-((4-aminomethyl)-1-piperidinyl)-quinolone-3-carboxylic acid], the MIC with S. aureus ATCC 25923 worked out at 3.2 µg/mL (≈ 8.43 µM); in the data set with P. aeruginosa ATCC 22853 it was 25.6 µg/mL (≈ 67.5 µM); with S. faecalis ATCC 25922 it was 3.2 µg/mL (≈ 8.43 µM); in the data set with E. coli ATCC 25922, 1.6 µg/mL (≈ 4.22 µM). The MBC is 6.4 µg/mL (≈ 16.9 µM) in the data set with S. aureus ATCC 25923, greater than 51.2 µg/mL in the data set on P. aeruginosa ATCC 22853, 25.6 µg/mL (≈ 67.5 µM) in the data set on S. faecalis and 1.6 µg/mL (≈ 4.22 µM) with E. coli ATCC 25922.
On to `NCC1CCN(c2c(F)cc3c(=O)c(C(=O)O)cn(C4CC4)c3c2F)CC1` [Compound 1, 6,8-difluoro-7-[(4-aminomethyl)-1-piperdinyl]-1-(1-cyclopropyl)-4-oxo-1,4-dihydroquinolinyl-3-carboxylic acid], for which the MIC with S. aureus ATCC 25923 was 0.06 µg/mL (≈ 0.159 µM); in the data set on P. aeruginosa ATCC 22853 it was greater than 16 µg/mL; in data set [1] (ATCC17904, 18 h, read-out: MINIMAL INHIBITORY CONCENTRATION (MIC)) it was 0.03 µg/mL (≈ 0.0795 µM); in the data set with S. faecalis ATCC 25922, 1 µg/mL (≈ 2.65 µM); in the data set with S. aureus CB-951 (18 h at 37° C., about 10^6 bacteria/ml, read-out: MINIMAL INHIBITORY CONCENTRATION (MIC)), 0.25 µg/mL (≈ 0.662 µM); in the data set with E. coli ATCC 25922, 2 µg/mL (≈ 5.3 µM). The MBC was 0.06 µg/mL (≈ 0.159 µM) in the data set with S. aureus ATCC 25923; greater than 16 µg/mL in the data set on P. aeruginosa ATCC 22853; 0.03 µg/mL (≈ 0.0795 µM) in data set [1] (ATCC17904, read-out: MINIMAL BACTERICIDAL CONCENTRATION (MBC)); 1 µg/mL (≈ 2.65 µM) in the data set with S. faecalis; 0.25 µg/mL (≈ 0.662 µM) in the data set on S. aureus CB-951 (read-out: MINIMAL BACTERICIDAL CONCENTRATION (MBC)); 4 µg/mL (≈ 10.6 µM) in the data set on E. coli ATCC 25922. In the data set “solubility in water”, the solubility in water result was “moderately soluble in water”.
Regarding `NCC1CCN(c2cc3c(cc2F)c(=O)c(C(=O)O)cn3C2CC2)CC1` [Compound 5, 6-fluoro-1-cyclopropyl-7-((4-aminomethyl)-1-piperidinyl)-quinolone-3-carboxylic acid], the MIC in the data set on S. aureus ATCC 25923 and in the data set with E. coli ATCC 25922 was 0.25 µg/mL (≈ 0.696 µM) throughout. For the same compound, the MBC with S. aureus ATCC 25923 and in the data set on E. coli ATCC 25922 was 0.5 µg/mL (≈ 1.39 µM) throughout.
